Data set [1] deals with choreic dyskinesia induced by dopamine agonist. As to the kind of experiment: In vivo model for dyskinesias associated with dopamine agonist therapy (MPTP parkinsonian monkeys). The following applies: 0.3 mg/kg sc.; one MPTP parkinsonian monkey, dyskinesias induced by chronic L-DOPA followed by PHNO. The protocol: The following procedure may be used to assess the efficacy of an AMPA receptor antagonist in the treatment of dyskinesias associated with dopamine agonist therapy in the treatment of Parkinson's disease. Aged, female rhesus monkeys are rendered Parkinsonian as follows. Each monkey is first infused with 0.4 mg/kg MPTP (1-methyl-4-phenyl-1,2,3,6-tetrahydropyridine) via the right internal carotid artery. After being evaluated behaviorally for 3 to 6 weeks and being judged to have stable unilateral deficits, the animals receive a second MPTP injection via the left internal carotid artery. […] Once the monkeys are Parkinsonian, dyskinesias are induced over a period of approximately 3 to 6 weeks by treating the monkeys twice daily with subcutaneous injections of PHNO ((+)-4-propyl-9-hydroxynaphthoxazine) (a dopamine agonist). Dyskinesias are assessed 30 minutes after PHNO injection and every 30 minutes for the next 120 minutes (5 measurements) taking into account the following: type of dyskinesia (chorea, dystonia); intensity (0=absent; 1=mild; 2=moderate; 3=severe); and topography (arm, leg, trunk, generalized). The overall score (0-3) is averaged over the 5 measurements. Scoring is performed blindly from coded videotapes. An AMPA receptor antagonist is then administered together with the dopamine agonist at dosages ranging from 0.05 mg/kg to 1 mg/kg. […]

Data set [2] deals with behavior of monkeys (MPTP-treated or untreated). As to the kind of experiment: Behavioral effect in other monkeys (MPTP-treated or untreated). The class given is in vivo, monkey. The following applies: 0.3 mg/kg sc. The protocol: Monkeys were made parkinsonian by intracarotid injection of the dopamine neuron toxin MPTP. Choreic and dystonic dyskinesias were induced in one monkey by chronic administration of L-DOPA followed by the selective D2 agonist PHNO. 3-(2-chloro-phenyl)-2-[2(6-diethylaminomethyl-pyridin-2-yl)-vinyl]-6-fluoro-3H-quinazolin-4-one (0.3 mg/kg sc.) reduced by 80% the choreic dyskinesia induced by dopamine agonist.

SMILES strings stand for the structures.

With `CCN(CC)Cc1cccc(C=Cc2nc3ccc(F)cc3c(=O)n2-c2ccccc2Cl)n1` [3-(2-chloro-phenyl)-2-[2-(6-diethylaminomethyl-pyridin-2-yl)-vinyl]-6-fluoro-3H-quinazolin-4-one], the “reduction of choreic dyskinesia induced by dopamine agonist” value in data set [1] is 80%. Further, the behavioral effect result in data set [2] was “little or no behavioral effect”.

For the origin of these results see patent US20010034345A1, “METHODS OF ADMINSTERING AN AMPA RECEPTOR ANTAGONIST TO TREAT DYSKINESIAS ASSOCIATED WITH DOPAMINE AGONIST THERAPY” (priority 1997, published 2001).
